Measured values taken from patent US11945794B2, “Nuclear transport modulators and uses thereof” (Karyopharm Therapeutics Inc., priority 2013, dated 2024).

Tests used:
Assay type in all cases: cell-based
MM1S cells = experiment: MTT cell proliferation assay; details: Homo sapiens, MM1.S, approximately 64-72 hours
Description: (§1) The MTT cell proliferation assay was used to study the cytotoxic properties of the compounds. The assay was performed according to the method described by Roche Molecular Biochemicals, with minor modifications. The assay is based on the cleavage of the tetrazolium salt, MTT, in the presence of an electron-coupling reagent. The water-insoluble formazan salt produced must be solubilized in an additional step. Cells grown in a 96-well tissue culture plate were incubated with the MTT solution for approximately 4 hours. After this incubation period, a water-insoluble formazan dye formed. After solubilization, the formazan dye was quantitated using a scanning multi-well spectrophotometer (ELISA reader). […] The cells were seeded at 5,000-10,000 cells in each well of 96-well plate in 100 μL of fresh culture medium and were allowed to attach overnight. The stock solutions of the compounds were diluted in 100 μL cell culture medium to obtain eight concentrations of each test compound, ranging from 1 nM to 30 μM. […] All optical densities were measured at 490 nm using a Vmax Kinetic Microplate Reader (Molecular Devices). In most cases, the assay was performed in duplicate and the results were presented as a mean percent inhibition to the negative control±SE. The following formula was used to calculate the percent of inhibition: Inhibition (%)=(1−(ODo/OD))×100.
(§2) The compounds were tested against Z138, MM1S and 3T3 cells. The Z138 cell line is a mature B-cell acute lymphoblastic leukemia cell line derived from a patient with chronic lumphocytic leukemia. The MM1S cell line was established from the peripheral blood of a human multiple myeloma patient. 3T3 cells are standard fibroblast cells; they were originally isolated from Swiss mouse embryo tissue.

Z138 cells = experiment: MTT cell proliferation assay; details: Homo sapiens, Z-138, approximately 64-72 hours
Description: as §1, §2

3T3 cells = experiment: MTT cell proliferation assay; details: Mus musculus, NIH3T3, approximately 64-72 hours
Description: as §1, §2

CRM1 = target: T1, CRM1 (Homo sapiens, UniProt O14980); experiment: Inhibition of nuclear export, RevGFP assay in U2OS-RevGFP cells; details: approximately 1 hour incubation
T1 construct: endogenous in cells; host or cells: U2OS cells stably expressing Rev-GFP
Description: The inhibition of CRM1 mediated nuclear export by compounds of the invention was determined in a RevGFP assay. Rev is a protein from human immunodeficiency virus type 1 (HIV-1) and contains a nuclear export signal (NES) in its C-terminal domain and a nuclear localization signal (NLS) in its N-terminal domain. Nuclear export of Rev protein is dependent on the classical NES/CRM1 pathway (Neville et al, 1997, Kau et al, 2003).
In this assay, U2OS-RevGFP cells were seeded onto clear-bottom, black, 384-well plates the day before the experiment. Compounds were serially diluted 1:2 starting from 40 μM in a separate 384-well plate in DMEM, and then transferred onto cells. Cells were incubated with compound for approximately 1 hour before fixation with 3.7% formaldehyde and nuclei staining with Hoechst 33258. The amount of GFP in cell nuclei was measured and compound IC50s were determined (Kau et al, 2003).

T1 sequence (O14980 whole entry): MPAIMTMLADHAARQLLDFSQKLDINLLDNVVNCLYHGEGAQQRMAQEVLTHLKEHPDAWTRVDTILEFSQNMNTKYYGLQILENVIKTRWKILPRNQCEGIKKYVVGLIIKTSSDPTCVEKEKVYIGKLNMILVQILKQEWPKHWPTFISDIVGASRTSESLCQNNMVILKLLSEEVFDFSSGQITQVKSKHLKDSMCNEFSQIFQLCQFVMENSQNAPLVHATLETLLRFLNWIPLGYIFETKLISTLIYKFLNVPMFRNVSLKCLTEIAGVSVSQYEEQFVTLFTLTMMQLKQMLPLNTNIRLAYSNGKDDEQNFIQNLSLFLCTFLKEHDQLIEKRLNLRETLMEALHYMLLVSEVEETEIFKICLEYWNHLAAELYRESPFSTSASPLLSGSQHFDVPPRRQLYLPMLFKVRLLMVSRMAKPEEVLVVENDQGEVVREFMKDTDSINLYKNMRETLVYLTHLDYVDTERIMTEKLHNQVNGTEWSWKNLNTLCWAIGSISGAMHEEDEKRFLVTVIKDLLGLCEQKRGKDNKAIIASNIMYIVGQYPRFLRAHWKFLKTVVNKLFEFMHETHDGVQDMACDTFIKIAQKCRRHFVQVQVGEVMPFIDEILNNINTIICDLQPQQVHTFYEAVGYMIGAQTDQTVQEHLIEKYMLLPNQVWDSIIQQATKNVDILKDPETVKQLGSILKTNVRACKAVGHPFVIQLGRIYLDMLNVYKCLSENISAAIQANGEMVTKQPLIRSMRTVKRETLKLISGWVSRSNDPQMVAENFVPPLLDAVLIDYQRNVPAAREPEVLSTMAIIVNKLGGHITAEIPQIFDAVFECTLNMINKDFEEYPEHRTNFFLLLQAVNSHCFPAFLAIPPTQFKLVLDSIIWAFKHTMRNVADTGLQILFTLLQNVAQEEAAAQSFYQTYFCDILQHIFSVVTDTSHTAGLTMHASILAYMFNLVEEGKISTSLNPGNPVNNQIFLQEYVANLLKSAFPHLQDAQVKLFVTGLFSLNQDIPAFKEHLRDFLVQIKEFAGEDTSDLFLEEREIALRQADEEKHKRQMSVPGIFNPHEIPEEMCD

Structure (SMILES) | IC50 (MM1S cells) [µM] | IC50 (Z138 cells) [µM] | IC50 (3T3 cells) [µM] | IC50 (CRM1) [µM]
Cc1noc(C)c1/C(=C\n1cnc(-c2cc(C(F)(F)F)cc(C(F)(F)F)c2)n1)C(N)=O [Compound 118, (E)-3-(3-(3,5-bis(trifluoromethyl)phenyl)-1H-1,2,4-triazol-1-yl)-2-(3,5-dimethylisoxazol-4-yl) acrylamide] | 0.1 to 5 | 0.1 to 5 | > 30 | 0.1 to 5
CC(C)OC(=O)/C(=C/n1cnc(-c2cc(C(F)(F)F)cc(C(F)(F)F)c2)n1)c1cncc(F)c1 [Compound 119, isopropyl (E)-3-(3-(3,5-bis(trifluoromethyl)phenyl)-1H-1,2,4-triazol-1-yl)-2-(5-fluoropyridin-3-yl)acrylate] | 0.1 to 5 | 0.1 to 5 | > 30 | 0.1 to 5
COc1ccc(/C(=C\n2cnc(-c3cc(C(F)(F)F)cc(C(F)(F)F)c3)n2)C(=O)OC(C)C)cn1 [Compound 120, isopropyl (E)-3-(3-(3,5-bis (trifluoromethyl)phenyl)-1H-1,2,4-triazol-1-yl)-2-(6-methoxypyridin-3-yl) acrylate] | 0.1 to 5 | 0.1 to 5 | > 30 | 0.1 to 5
CC(C)OC(=O)/C(=C/n1cnc(-c2cc(C(F)(F)F)cc(C(F)(F)F)c2)n1)c1cnn(C)c1 [Compound 130, isopropyl (E)-3-(3-(3,5-bis(trifluoromethyl)phenyl)-1H-1,2,4-triazol-1-yl)-2-(1-methyl-1H-pyrazol-4-yl)acrylate] | < 0.1 | – | – | 0.1 to 5
NC(=O)/C(=C/n1cnc(-c2cc(C(F)(F)F)cc(C(F)(F)F)c2)n1)c1cncc(F)c1 [Compound 132, (E)-3-(3-(3,5-bis(trifluoromethyl)phenyl)-1H-1,2,4-triazol-1-yl)-2-(5-fluoropyridin-3-yl)acrylamide] | – | – | – | < 0.1
NC(=O)/C(=C/n1cnc(-c2cc(C(F)(F)F)cc(C(F)(F)F)c2)n1)c1cnc(N)nc1 [Compound 136, (E)-2-(2-aminopyrimidin-5-yl)-3-(3-(3,5-bis(trifluoromethyl)phenyl)-1H-1,2,4-triazol-1-yl)acrylamide] | < 0.1 | 0.1 to 5 | > 30 | 0.1 to 5
NC(=O)/C(=C/n1cnc(-c2cc(C(F)(F)F)cc(C(F)(F)F)c2)n1)c1cnc(F)nc1 [Compound 137, (E)-3-(3-(3,5-bis(trifluoromethyl)phenyl)-1H-1,2,4-triazol-1-yl)-2-(2-fluoropyrimidin-5-yl)acrylamide] | < 0.1 | 0.1 to 5 | > 30 | < 0.1
NC(=O)/C(=C/n1cnc(-c2cc(C(F)(F)F)cc(C(F)(F)F)c2)n1)c1ccncc1F [Compound 138, (E)-3-(3-(3,5-bis(trifluoromethyl)phenyl)-1H-1,2,4-triazol-1-yl)-2-(3-fluoropyridin-4-yl)acrylamide] | < 0.1 | < 0.1 | 0.1 to 5 | < 0.1
NC(=O)/C(=C/n1cnc(-c2cc(C(F)(F)F)cc(C(F)(F)F)c2)n1)c1ccc(-c2cccnc2)cc1 [Compound 151, (E)-3-(3-(3,5-bis(trifluoromethyl)phenyl)-1H-1,2,4-triazol-1-yl)-2-(4-(pyridin-3-yl)phenyl)acrylamide] | 0.1 to 5 | 5 to 30 | > 30 | –
NC(=O)/C(=C/n1cnc(-c2cc(C(F)(F)F)cc(C(F)(F)F)c2)n1)c1ccc2cn[nH]c2c1 [Compound 152, (E)-3-(3-(3,5-bis(trifluoromethyl)phenyl)-1H-1,2,4-triazol-1-yl)-2-(1H-indazol-6-yl)acrylamide] | 0.1 to 5 | 0.1 to 5 | > 30 | –
NC(=O)/C(=C\n1cnc(-c2cc(C(F)(F)F)cc(C(F)(F)F)c2)n1)c1cncnc1 [Compound 153, (Z)-3-(3-(3,5-bis(trifluoromethyl)phenyl)-1H-1,2,4-triazol-1-yl)-2-(pyrimidin-5-yl)acrylamide] | < 0.1 | 0.1 to 5 | > 30 | –
NC(=O)/C(=C\n1cnc(-c2cc(C(F)(F)F)cc(C(F)(F)F)c2)n1)c1cccnc1F [Compound 157, (Z)-3-(3-(3,5-bis(trifluoromethyl)phenyl)-1H-1,2,4-triazol-1-yl)-2-(2-fluoropyridin-3-yl)acrylamide] | 0.1 to 5 | 0.1 to 5 | 0.1 to 5 | –
